Measurements as given in US20040127403A1, “Methods for treating and preventing Gram-positive bacteremias” (priority 2002, published 2004).
Converted amounts (≈) assume the structure as drawn. Where two headings read alike, the source gives them in different places.

Legend:
Assay in all cases: MIC, NCCLS broth microdilution
Assay type in all cases: cell-based
E. faecalis ATCC51299 = conditions: Enterococcus faecalis, ATCC51299, E. faecalis ATCC51299, read-out: MIC
Protocol: (§1) The efficacy of ramoplanin was tested against recently isolated VRE that are resistant to linezolid and quinupristin/dalfopristin. The culture media containing ramoplanin was supplemented with 0.02% bovine serum albumin (BSA) to prevent ramoplanin binding to the plastic. MIC values were determined in both cation-adjusted Mueller-Hinton broth (CAMHB) and trypticase soy broth (TSB) by the National Committee for Clinical Laboratory Standards (NCCLS) broth microdilution method. Macromolecular biosynthesis experiments were done by following the incorporation of carbon-14-labeled N-acetylglucosamine, acetic acid, amino acids, uridine, and thymidine into peptidoglycan, fatty acid, protein, RNA and DNA, respectively.

S. aureus ATCC19636 MSSA = conditions: Staphylococcus aureus, read-out: MIC
Protocol: as §1

S. aureus ATCC27660 MSSA = conditions: Staphylococcus aureus, read-out: MIC
Protocol: as §1

E. faecalis A7789 Line-R = conditions: Enterococcus faecalis, A7789LINER
Protocol: as §1

E. gallinarum UA604 = conditions: Enterococcus gallinarum, GALLINARUM, read-out: MIC
Protocol: as §1

S. aureus ATCC35556 MRSA = conditions: Staphylococcus aureus, read-out: MIC
Protocol: as §1

E. faecium UA210 = conditions: Enterococcus faecium, UA210, E. faecium UA210, read-out: MIC
Protocol: as §1

E. faecium ATCC700221 = conditions: Enterococcus faecium, ATCC700221, E. faecium ATCC700221, read-out: MIC
Protocol: as §1

E. faecium A6350 Line-R = conditions: Enterococcus faecium, A6350LINER, read-out: MIC
Protocol: as §1

E. faecium A6345 Line-R = conditions: for MIC: Enterococcus faecium, A6345LINER, E. faecium A6345 Line-R, read-out: MIC
Protocol: as §1

[1] = system: S. aureus ATCC700699 MRSA/VISA; conditions: Staphylococcus aureus, S. aureus ATCC700699 MRSA/VISA, read-out: MIC
Protocol: as §1

E. faecium 1836 = conditions: Enterococcus faecium, 1836, E. faecium 1836, read-out: MIC
Protocol: as §1

S. aureus ATCC43300 MRSA = conditions: Staphylococcus aureus, ATCC 43300 / MRSA / VISA, S. aureus ATCC43300 MRSA/VISA, read-out: MIC
Protocol: as §1

S. epidermidis ATCC14990 = conditions: Staphylococcus epidermidis, ATCC14990, S. epidermidis ATCC14990, read-out: MIC
Protocol: as §1

E. faecium A2735 Syn-R = conditions: Enterococcus faecium, A2735SYNR, read-out: MIC
Protocol: as §1

E. faecium A4192 Syn-R = conditions: Enterococcus faecium, A4192SYNR, read-out: MIC
Protocol: as §1

E. faecium A6349 Line-R = conditions: Enterococcus faecium, A6349LINER, read-out: MIC
Protocol: as §1

S. aureus ATCC27659 MSSA = conditions: Staphylococcus aureus, read-out: MIC
Protocol: as §1

S. epidermidis ATCC35983 = conditions: Staphylococcus epidermidis, ATCC35983, S. epidermidis ATCC35983, read-out: MIC
Protocol: as §1

E. faecium A-5960 Line-R = conditions: Enterococcus faecium, A5960LINER
Protocol: as §1

S. aureus ATCC12600 MRSA = conditions: Staphylococcus aureus, read-out: MIC
Protocol: as §1

S. epidermidis ATCC12228 = conditions: Staphylococcus epidermidis, ATCC12228, S. epidermidis ATCC12228, read-out: MIC
Protocol: as §1

E. faecium A5959 Line-R = conditions: Enterococcus faecium, A5959LINER
Protocol: as §1

CC(=O)NC[C@H]1CN(c2ccc(N3CCOCC3)c(F)c2)C(=O)O1 [Linezolid]
MIC (E. faecalis ATCC51299; Table 6, 1st): 2 µg/mL (≈ 5.93 µM)
MIC (E. faecalis ATCC51299; Table 6, 2nd): 2 µg/mL (≈ 5.93 µM)
MIC (S. aureus ATCC19636 MSSA; Table 6, 1st): 4 µg/mL (≈ 11.9 µM)
MIC (S. aureus ATCC19636 MSSA; Table 6, 2nd): 2 µg/mL (≈ 5.93 µM)
MIC (S. aureus ATCC27660 MSSA; Table 6, 1st): 4 µg/mL (≈ 11.9 µM)
MIC (S. aureus ATCC27660 MSSA; Table 6, 2nd): 2 µg/mL (≈ 5.93 µM)
MIC (E. faecalis A7789 Line-R; Table 6, 1st): > 16 µg/mL
MIC (E. faecalis A7789 Line-R; Table 6, 2nd): 32 µg/mL (≈ 94.9 µM)
MIC (E. gallinarum UA604; Table 6, 1st): 4 µg/mL (≈ 11.9 µM)
MIC (E. gallinarum UA604; Table 6, 2nd): 2 µg/mL (≈ 5.93 µM)
MIC (S. aureus ATCC35556 MRSA; Table 6, 1st): 4 µg/mL (≈ 11.9 µM)
MIC (S. aureus ATCC35556 MRSA; Table 6, 2nd): 2 µg/mL (≈ 5.93 µM)
MIC (E. faecium UA210; Table 6, 1st): 4 µg/mL (≈ 11.9 µM)
MIC (E. faecium UA210; Table 6, 2nd): 2 µg/mL (≈ 5.93 µM)
MIC (E. faecium ATCC700221; Table 6, 1st): 4 µg/mL (≈ 11.9 µM)
MIC (E. faecium ATCC700221; Table 6, 2nd): 2 µg/mL (≈ 5.93 µM)
MIC (E. faecium A6350 Line-R; Table 6, 1st): 4 µg/mL (≈ 11.9 µM)
MIC (E. faecium A6350 Line-R; Table 6, 2nd): 2 µg/mL (≈ 5.93 µM)
reference MIC for strains used for killing curve (E. faecium A6345 Line-R; E. faecium A6345 Line-R. as printed, second row of Table 3): 16 µg/mL
reference MIC for strains used for killing curve (E. faecium A6345 Line-R; E. faecium A6345 Line-R., first row of Table 3): 16 to 32 µg/mL
MIC (E. faecium A6345 Line-R; Table 6, 1st): > 16 µg/mL
MIC (E. faecium A6345 Line-R; Table 6, 2nd): 32 µg/mL (≈ 94.9 µM)
MIC ([1]; Table 6, 1st): 4 µg/mL (≈ 11.9 µM)
MIC ([1]; Table 6, 2nd): 2 µg/mL (≈ 5.93 µM)
MIC (E. faecium 1836; Table 6, 1st): 4 µg/mL (≈ 11.9 µM)
MIC (E. faecium 1836; Table 6, 2nd): 2 µg/mL (≈ 5.93 µM)
MIC (S. aureus ATCC43300 MRSA; Table 6, 1st): 4 µg/mL (≈ 11.9 µM)
MIC (S. aureus ATCC43300 MRSA; Table 6, 2nd): 2 µg/mL (≈ 5.93 µM)
MIC (S. epidermidis ATCC14990; Table 6, 1st): 4 µg/mL (≈ 11.9 µM)
MIC (S. epidermidis ATCC14990; Table 6, 2nd): 2 µg/mL (≈ 5.93 µM)
MIC (E. faecium A2735 Syn-R; Table 6, 1st): 4 µg/mL (≈ 11.9 µM)
MIC (E. faecium A2735 Syn-R; Table 6, 2nd): 2 µg/mL (≈ 5.93 µM)
MIC (E. faecium A4192 Syn-R; Table 6, 1st): 4 µg/mL (≈ 11.9 µM)
MIC (E. faecium A4192 Syn-R; Table 6, 2nd): 2 µg/mL (≈ 5.93 µM)
MIC (E. faecium A6349 Line-R; Table 6, 1st): 16 µg/mL (≈ 47.4 µM)
MIC (E. faecium A6349 Line-R; Table 6, 2nd): 16 µg/mL (≈ 47.4 µM)
MIC (S. aureus ATCC27659 MSSA; Table 6, 1st): 4 µg/mL (≈ 11.9 µM)
MIC (S. aureus ATCC27659 MSSA; Table 6, 2nd): 2 µg/mL (≈ 5.93 µM)
MIC (S. epidermidis ATCC35983; Table 6, 1st): 2 µg/mL (≈ 5.93 µM)
MIC (S. epidermidis ATCC35983; Table 6, 2nd): 2 µg/mL (≈ 5.93 µM)
MIC (E. faecium A-5960 Line-R; Table 6, 1st): > 16 µg/mL
MIC (E. faecium A-5960 Line-R; Table 6, 2nd): 32 µg/mL (≈ 94.9 µM)
MIC (S. aureus ATCC12600 MRSA; Table 6, 1st): 4 µg/mL (≈ 11.9 µM)
MIC (S. aureus ATCC12600 MRSA; Table 6, 2nd): 2 µg/mL (≈ 5.93 µM)
MIC (S. epidermidis ATCC12228; Table 6, 1st): 2 µg/mL (≈ 5.93 µM)
MIC (S. epidermidis ATCC12228; Table 6, 2nd): 2 µg/mL (≈ 5.93 µM)
MIC (E. faecium A5959 Line-R; Table 6, 1st): > 16 µg/mL
MIC (E. faecium A5959 Line-R; Table 6, 2nd): 16 µg/mL (≈ 47.4 µM)

COc1cccc(OC)c1C(=O)N[C@@H]1C(=O)N2[C@@H]1SC(C)(C)[C@@H]2C(=O)O [Meth., methicillin]
MIC (E. faecalis ATCC51299; Table 6, 1st): > 16 µg/mL
MIC (E. faecalis ATCC51299; Table 6, 2nd): 32 µg/mL (≈ 84.1 µM)
MIC (S. aureus ATCC19636 MSSA; Table 6, 1st): 1 µg/mL (≈ 2.63 µM)
MIC (S. aureus ATCC19636 MSSA; Table 6, 2nd): 2 µg/mL (≈ 5.26 µM)
MIC (S. aureus ATCC27660 MSSA; Table 6, 1st): 2 µg/mL (≈ 5.26 µM)
MIC (S. aureus ATCC27660 MSSA; Table 6, 2nd): 4 µg/mL (≈ 10.5 µM)
MIC (E. faecalis A7789 Line-R; Table 6, 1st): > 16 µg/mL
MIC (E. faecalis A7789 Line-R; Table 6, 2nd): 32 µg/mL (≈ 84.1 µM)
MIC (E. gallinarum UA604; Table 6, 1st): > 16 µg/mL
MIC (E. gallinarum UA604; Table 6, 2nd): > 64 µg/mL
MIC (S. aureus ATCC35556 MRSA; Table 6, 1st): 1 µg/mL (≈ 2.63 µM)
MIC (S. aureus ATCC35556 MRSA; Table 6, 2nd): 1 µg/mL (≈ 2.63 µM)
MIC (E. faecium UA210; Table 6, 1st): > 16 µg/mL
MIC (E. faecium UA210; Table 6, 2nd): > 64 µg/mL
MIC (E. faecium ATCC700221; Table 6, 1st): > 16 µg/mL
MIC (E. faecium ATCC700221; Table 6, 2nd): > 64 µg/mL
MIC (E. faecium A6350 Line-R; Table 6, 1st): > 16 µg/mL
MIC (E. faecium A6350 Line-R; Table 6, 2nd): 64 µg/mL (≈ 168 µM)
MIC (E. faecium A6345 Line-R; Table 6, 1st): > 16 µg/mL
MIC (E. faecium A6345 Line-R; Table 6, 2nd): > 64 µg/mL
MIC ([1]; Table 6, 1st): > 16 µg/mL
MIC ([1]; Table 6, 2nd): > 64 µg/mL
MIC (E. faecium 1836; Table 6, 1st): > 16 µg/mL
MIC (E. faecium 1836; Table 6, 2nd): > 64 µg/mL
MIC (S. aureus ATCC43300 MRSA; Table 6, 1st): 8 µg/mL (≈ 21 µM)
MIC (S. aureus ATCC43300 MRSA; Table 6, 2nd): 8 µg/mL (≈ 21 µM)
MIC (S. epidermidis ATCC14990; Table 6, 1st): 1 µg/mL (≈ 2.63 µM)
MIC (S. epidermidis ATCC14990; Table 6, 2nd): 1 µg/mL (≈ 2.63 µM)
MIC (E. faecium A2735 Syn-R; Table 6, 1st): > 16 µg/mL
MIC (E. faecium A2735 Syn-R; Table 6, 2nd): > 64 µg/mL
MIC (E. faecium A4192 Syn-R; Table 6, 1st): > 16 µg/mL
MIC (E. faecium A4192 Syn-R; Table 6, 2nd): > 64 µg/mL
MIC (E. faecium A6349 Line-R; Table 6, 1st): > 16 µg/mL
MIC (E. faecium A6349 Line-R; Table 6, 2nd): > 64 µg/mL
MIC (S. aureus ATCC27659 MSSA; Table 6, 1st): 2 µg/mL (≈ 5.26 µM)
MIC (S. aureus ATCC27659 MSSA; Table 6, 2nd): 2 µg/mL (≈ 5.26 µM)
MIC (S. epidermidis ATCC35983; Table 6, 1st): > 16 µg/mL
MIC (S. epidermidis ATCC35983; Table 6, 2nd): 64 µg/mL (≈ 168 µM)
MIC (E. faecium A-5960 Line-R; Table 6, 1st): > 16 µg/mL
MIC (E. faecium A-5960 Line-R; Table 6, 2nd): > 64 µg/mL
MIC (S. aureus ATCC12600 MRSA; Table 6, 1st): 2 µg/mL (≈ 5.26 µM)
MIC (S. aureus ATCC12600 MRSA; Table 6, 2nd): > 64 µg/mL
MIC (S. epidermidis ATCC12228; Table 6, 1st): 1 µg/mL (≈ 2.63 µM)
MIC (S. epidermidis ATCC12228; Table 6, 2nd): 2 µg/mL (≈ 5.26 µM)
MIC (E. faecium A5959 Line-R; Table 6, 1st): > 16 µg/mL
MIC (E. faecium A5959 Line-R; Table 6, 2nd): > 64 µg/mL
